{
  "source": "paper PMC11870037",
  "about": "(Molecules, 2024)",
  "key": {"hERG potassium channel": {"molecular_target": "T1, hERG potassium channel (Homo sapiens, UniProt Q12809)", "T1 construct": "expressed in transfected cells; host or cells: HEK 293", "T1 sequence (Q12809 whole entry)": "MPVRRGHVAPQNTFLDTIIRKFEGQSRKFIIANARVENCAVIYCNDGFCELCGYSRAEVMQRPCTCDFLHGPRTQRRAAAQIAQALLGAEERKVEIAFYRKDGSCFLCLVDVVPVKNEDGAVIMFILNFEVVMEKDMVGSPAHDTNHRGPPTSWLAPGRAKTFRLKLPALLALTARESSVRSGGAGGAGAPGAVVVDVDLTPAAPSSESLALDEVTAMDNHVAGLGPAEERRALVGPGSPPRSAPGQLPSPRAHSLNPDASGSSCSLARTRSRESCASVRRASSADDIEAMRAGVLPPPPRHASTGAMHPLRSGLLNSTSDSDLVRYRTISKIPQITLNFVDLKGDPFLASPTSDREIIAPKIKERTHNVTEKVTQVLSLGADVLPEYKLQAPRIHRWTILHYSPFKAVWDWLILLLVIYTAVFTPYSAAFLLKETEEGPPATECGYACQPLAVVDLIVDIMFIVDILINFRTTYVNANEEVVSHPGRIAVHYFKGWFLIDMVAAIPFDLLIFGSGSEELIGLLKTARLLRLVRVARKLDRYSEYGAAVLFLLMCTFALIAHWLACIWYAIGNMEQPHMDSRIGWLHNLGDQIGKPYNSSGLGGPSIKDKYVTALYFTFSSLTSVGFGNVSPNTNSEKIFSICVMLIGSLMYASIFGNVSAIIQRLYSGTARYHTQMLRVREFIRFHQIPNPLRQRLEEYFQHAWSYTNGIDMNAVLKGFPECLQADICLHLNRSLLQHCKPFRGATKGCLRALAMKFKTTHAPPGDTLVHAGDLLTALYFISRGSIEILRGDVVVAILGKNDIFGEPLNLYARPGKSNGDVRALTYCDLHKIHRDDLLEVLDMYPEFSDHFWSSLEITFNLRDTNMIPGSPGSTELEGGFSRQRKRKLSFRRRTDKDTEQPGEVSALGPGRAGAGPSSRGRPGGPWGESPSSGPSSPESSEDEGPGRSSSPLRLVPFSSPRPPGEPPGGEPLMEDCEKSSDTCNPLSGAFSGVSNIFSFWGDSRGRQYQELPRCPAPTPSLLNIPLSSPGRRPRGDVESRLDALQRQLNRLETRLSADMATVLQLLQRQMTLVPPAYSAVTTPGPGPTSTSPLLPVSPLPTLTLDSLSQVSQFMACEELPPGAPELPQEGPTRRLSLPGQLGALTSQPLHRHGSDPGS", "test": "hERG whole-cell patch clamp in HEK 293 cells", "assay_type": "cell-based"}, "recombinant hH3R": {"molecular_target": "recombinant hH3R (Homo sapiens, UniProt Q9Y5N1)", "sequence (Q9Y5N1 whole entry)": "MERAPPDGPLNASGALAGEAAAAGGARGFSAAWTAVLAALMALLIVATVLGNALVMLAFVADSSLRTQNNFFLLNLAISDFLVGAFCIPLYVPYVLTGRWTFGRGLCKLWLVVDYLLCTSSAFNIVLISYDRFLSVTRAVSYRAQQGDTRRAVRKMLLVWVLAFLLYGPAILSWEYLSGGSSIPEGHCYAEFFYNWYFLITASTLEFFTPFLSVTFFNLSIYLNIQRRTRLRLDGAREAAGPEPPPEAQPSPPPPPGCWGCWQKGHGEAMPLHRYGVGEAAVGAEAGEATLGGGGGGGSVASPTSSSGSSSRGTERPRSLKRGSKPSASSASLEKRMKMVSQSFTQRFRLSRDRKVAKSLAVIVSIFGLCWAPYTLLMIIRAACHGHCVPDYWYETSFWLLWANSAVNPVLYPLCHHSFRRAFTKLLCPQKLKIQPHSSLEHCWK", "test": "H3 receptor intrinsic activity assay ([35S]GTPγS binding)", "assay_type": "biochemical"}, "NMDA receptor": {"molecular_target": "NMDA receptor (Rattus norvegicus, UniProt P35439)", "test": "NMDA receptor binding", "conditions": "read-out: Ki NDMA"}, "Dopamine D2 receptor": {"molecular_target": "Dopamine D2 receptor (Rattus norvegicus, UniProt P61169)", "sequence (P61169 1-415 isoform P61169-2)": "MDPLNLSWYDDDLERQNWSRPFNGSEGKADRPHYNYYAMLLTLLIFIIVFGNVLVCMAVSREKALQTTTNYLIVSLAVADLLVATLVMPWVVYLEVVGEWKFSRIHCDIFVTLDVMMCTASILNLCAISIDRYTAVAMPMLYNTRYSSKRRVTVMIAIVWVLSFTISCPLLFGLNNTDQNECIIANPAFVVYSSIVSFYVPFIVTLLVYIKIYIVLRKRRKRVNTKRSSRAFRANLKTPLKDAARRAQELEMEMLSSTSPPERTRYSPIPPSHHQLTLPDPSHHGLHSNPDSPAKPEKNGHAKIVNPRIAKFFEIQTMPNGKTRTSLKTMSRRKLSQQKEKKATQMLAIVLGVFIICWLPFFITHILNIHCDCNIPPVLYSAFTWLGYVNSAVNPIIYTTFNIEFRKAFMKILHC", "test": "Dopamine D2 receptor binding ([3H]spiperone)", "conditions": "rat striatum"}, "[1]": {"molecular_target": "T2, Serotonin 5-HT2C receptor (Rattus norvegicus, UniProt P08909)", "T2 construct": "The cerebral cortex of a rat was processed by homogenization; from tissue; host or cells: rat cerebral cortex membranes", "test": "Serotonin 5-HT2C receptor binding ([3H]mesulergine)", "conditions": "rat brain cortex"}, "NET": {"molecular_target": "NET (Rattus norvegicus, UniProt Q63380)", "sequence (Q63380 1-617)": "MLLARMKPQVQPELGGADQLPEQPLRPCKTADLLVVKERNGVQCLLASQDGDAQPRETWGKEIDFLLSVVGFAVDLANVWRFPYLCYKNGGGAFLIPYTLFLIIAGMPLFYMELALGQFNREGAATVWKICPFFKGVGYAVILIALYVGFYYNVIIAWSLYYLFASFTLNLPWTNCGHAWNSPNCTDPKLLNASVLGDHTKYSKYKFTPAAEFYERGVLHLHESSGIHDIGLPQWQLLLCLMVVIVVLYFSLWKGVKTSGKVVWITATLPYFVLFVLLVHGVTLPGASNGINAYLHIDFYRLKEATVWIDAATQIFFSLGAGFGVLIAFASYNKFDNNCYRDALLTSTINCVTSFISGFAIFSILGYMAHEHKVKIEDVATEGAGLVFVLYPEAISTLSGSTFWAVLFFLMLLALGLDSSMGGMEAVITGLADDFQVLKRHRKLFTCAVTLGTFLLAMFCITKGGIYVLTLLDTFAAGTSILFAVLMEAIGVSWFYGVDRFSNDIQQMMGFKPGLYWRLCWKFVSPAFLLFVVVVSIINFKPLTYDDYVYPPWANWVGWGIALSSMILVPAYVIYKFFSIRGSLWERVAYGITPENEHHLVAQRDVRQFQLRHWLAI", "test": "biochemical", "conditions": "Receptor Affinity Ki ± SEM NET, rat hippocampal membrane, [3H]nisoxetine; means ± SEM of three experiments"}, "Adrenergic α2 receptor": {"molecular_target": "Adrenergic α2 receptor", "test": "Adrenergic α2 receptor binding ([3H]-rauwolscine)", "conditions": "rat cerebral cortex"}, "[2]": {"molecular_target": "T3, M5 muscarinic cholinergic receptor (Homo sapiens, UniProt P08912)", "T3 construct": "blood lymphocytes were used at a concentration of 1 × 10⁶ cells; endogenous in cells; host or cells: peripheral blood lymphocytes", "T3 sequence (P08912 whole entry)": "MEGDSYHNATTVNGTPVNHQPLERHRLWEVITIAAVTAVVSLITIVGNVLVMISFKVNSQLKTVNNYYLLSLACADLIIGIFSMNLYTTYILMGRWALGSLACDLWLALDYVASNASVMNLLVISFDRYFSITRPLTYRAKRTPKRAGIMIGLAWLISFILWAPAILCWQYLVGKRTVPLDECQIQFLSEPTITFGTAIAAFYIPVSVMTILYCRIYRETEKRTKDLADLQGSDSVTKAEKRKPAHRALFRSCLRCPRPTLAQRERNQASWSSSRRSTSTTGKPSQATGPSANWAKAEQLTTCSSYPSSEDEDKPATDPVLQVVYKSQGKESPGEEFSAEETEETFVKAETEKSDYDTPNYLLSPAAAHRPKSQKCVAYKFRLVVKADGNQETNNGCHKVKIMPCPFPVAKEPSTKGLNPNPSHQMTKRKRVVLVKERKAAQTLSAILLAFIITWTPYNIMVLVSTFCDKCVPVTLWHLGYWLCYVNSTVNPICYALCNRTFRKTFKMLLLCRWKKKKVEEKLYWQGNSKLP", "test": "Muscarinic M5 receptor binding (lymphocyte suspension)", "conditions": "lymphocyte suspension and sections", "experimental": "(§1) Antagonist potency was determined according to literature, by measuring inhibition of RAMH-induced [35S]GTPγS binding in recombinant hH3R membranes as previously. The […]\n(§2) Inverse agonist potency was conducted by measuring inhibition of basal [35S]GTPγS binding in recombinant hH3 Rmembranes. Test compound or vehicle was added to the wells, followed by [35S]GTPγS to a final concentration of 0.2 nM. Nonspecific binding was determined in the presence of 10 μM unlabeled GTPγS. The control agonist signal was determined in wells containing vehicle in place of the test compound, and the basal signal was determined in wells containing vehicle in place of both diluted compound and the RAMH […]\n(§3) 3. Selectivity of Compound 11b for Additional Receptors […]\n(§4) transporter, 3[H]-WIN35,428, rat striatum; (2) Dopamine D1 receptor, 3[H]-SCH23390, rat striatum; (3) Dopamine D2 receptor, [3H]spiperone, rat striatum; (4) Dopamine D3 receptor, [3H] 7-OH-DPAT, rat olfactory tubercle; (5) Serotonin 5-HT2A receptor, [3H]Ketanserin, rat brain cortex;\n(§5) (6) Serotonin 5-HT2C receptor, [3H]mesulergine, rat brain cortex; (7) Adrenergic α2 receptor, [3H]- rauwolscine, rat cerebral cortex; (8) Histamine H2 receptor, [3H]tiotidine, Sf9 cells and […]"}, "σ2 receptor": {"molecular_target": "T4, σ2 receptor (Cavia porcellus, UniProt H0V073)", "T4 construct": "from tissue; host or cells: guinea pig brain membranes", "T4 sequence (H0V073 1-176)": "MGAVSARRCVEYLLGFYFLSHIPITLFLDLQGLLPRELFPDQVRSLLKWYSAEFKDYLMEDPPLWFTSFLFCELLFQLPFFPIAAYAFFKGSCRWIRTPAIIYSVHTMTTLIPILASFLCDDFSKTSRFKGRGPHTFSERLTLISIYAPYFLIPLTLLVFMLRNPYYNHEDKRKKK", "test": "σ2 receptor binding ([3H]-DTG)", "conditions": "guinea pig brain membrane"}, "SERT": {"molecular_target": "T5, SERT (Rattus norvegicus, UniProt P31652)", "T5 construct": "[3H]-paroxetine, rat cerebral cortex; from tissue; host or cells: rat cerebral cortex (membranes / crude synaptosomes)", "T5 sequence (P31652 whole entry)": "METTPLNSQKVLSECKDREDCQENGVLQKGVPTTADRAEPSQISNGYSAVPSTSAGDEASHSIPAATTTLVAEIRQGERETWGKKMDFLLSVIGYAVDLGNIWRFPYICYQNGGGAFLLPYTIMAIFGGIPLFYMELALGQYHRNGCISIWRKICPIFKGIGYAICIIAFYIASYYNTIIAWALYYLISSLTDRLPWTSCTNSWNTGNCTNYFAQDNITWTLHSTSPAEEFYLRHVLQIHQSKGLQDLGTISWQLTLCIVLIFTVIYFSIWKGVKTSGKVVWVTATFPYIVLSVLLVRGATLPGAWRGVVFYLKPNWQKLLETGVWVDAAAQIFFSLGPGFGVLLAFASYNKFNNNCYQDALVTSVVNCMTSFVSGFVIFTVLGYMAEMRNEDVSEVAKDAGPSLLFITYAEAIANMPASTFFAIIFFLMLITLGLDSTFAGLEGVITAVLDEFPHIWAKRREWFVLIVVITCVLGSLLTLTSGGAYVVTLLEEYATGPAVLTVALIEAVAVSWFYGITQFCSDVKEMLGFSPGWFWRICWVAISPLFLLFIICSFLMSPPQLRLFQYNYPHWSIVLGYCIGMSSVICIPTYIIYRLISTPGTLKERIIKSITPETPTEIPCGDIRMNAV", "test": "biochemical", "assay_type": "binding"}, "adrenergic α1 receptor": {"molecular_target": "adrenergic α1 receptor", "test": "Adrenergic α1 receptor binding assay ([3H]prazosin)", "conditions": "rat cerebral cortex, means ± SEM of three experiments, read-out: Receptor Affinity Ki ± SEM α1"}, "muscarinic M1 receptor": {"molecular_target": "T6, muscarinic M1 receptor (Homo sapiens, UniProt P11229)", "T6 construct": "blood lymphocytes were used at a concentration of 1 × 10⁶ cells; endogenous in cells; host or cells: peripheral blood lymphocytes", "T6 sequence (P11229 whole entry)": "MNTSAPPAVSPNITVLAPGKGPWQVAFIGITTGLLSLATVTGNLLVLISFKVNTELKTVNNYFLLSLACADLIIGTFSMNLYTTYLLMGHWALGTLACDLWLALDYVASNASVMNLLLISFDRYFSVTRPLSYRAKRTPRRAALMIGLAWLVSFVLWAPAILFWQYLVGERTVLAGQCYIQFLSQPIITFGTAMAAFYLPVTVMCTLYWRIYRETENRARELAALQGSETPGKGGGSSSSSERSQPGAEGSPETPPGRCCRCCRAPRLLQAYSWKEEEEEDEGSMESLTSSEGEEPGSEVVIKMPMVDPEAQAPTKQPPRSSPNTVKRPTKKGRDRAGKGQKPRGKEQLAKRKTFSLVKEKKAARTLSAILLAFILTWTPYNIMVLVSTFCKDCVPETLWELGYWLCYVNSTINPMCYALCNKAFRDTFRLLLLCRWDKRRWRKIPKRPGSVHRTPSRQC", "test": "Muscarinic M1 receptor binding (peripheral blood lymphocytes)", "conditions": "lymphocyte suspension and sections"}, "[3]": {"test": "Acute toxicity, up-and-down procedure", "conditions": "female, rat, in vivo; females, F344 rats, oral", "experimental": "The hERG potassium channel blocking potential was evaluated using the whole-cell patch clamp method with hERG channels expressed in HEK 293 cells as the biological material. The Axopatch 200B amplifier and Digidata 1440A converter from Molecular Devices were integral to the setup. Electrodes crafted from borosilicate glass with filament by Sutter Instrument Company were used for recordings.\nCommand pulse protocols for voltage clamping and data acquisition were managed by pCLAMP […]\nThe bath solution contained 137 mM NaCl, 5.4 mM KCl, 10 mM glucose, 10 mM HEPES, and 2 mM CaCl2, with pH adjusted to 7.5 by NaOH. The pipet solution was composed of 140 mM KCl, 1 mM MgCl2, 5 mM EGTA, 10 mM HEPES, and 5 mM Na2ATP, with pH adjusted to 7.2 using KOH. The compound 11b was dissolved in a 50% (w/v) DMSO solution at an initial concentration of 1 mM and diluted to the test concentration with the bath solution. […]\nnumber of surviving animals was recorded after 24 h of drug administration, and the percent mortality in each group was calculated. The LD50 values were calculated by using the soft AOT425statpgm […]\ngroup containing 16 mice. […] The duration of immobility during the last 4 minutes of a total time of 6 minutes was recorded, and animals were judged to be immobile when they floated motionless, making only necessary movements to keep their heads above the water. […]"}, "[4]": {"molecular_target": "T7, M3 muscarinic cholinergic receptor (Homo sapiens, UniProt P20309)", "T7 construct": "blood lymphocytes were used at a concentration of 1 × 10⁶ cells; endogenous in cells; host or cells: peripheral blood lymphocytes", "T7 sequence (P20309 whole entry)": "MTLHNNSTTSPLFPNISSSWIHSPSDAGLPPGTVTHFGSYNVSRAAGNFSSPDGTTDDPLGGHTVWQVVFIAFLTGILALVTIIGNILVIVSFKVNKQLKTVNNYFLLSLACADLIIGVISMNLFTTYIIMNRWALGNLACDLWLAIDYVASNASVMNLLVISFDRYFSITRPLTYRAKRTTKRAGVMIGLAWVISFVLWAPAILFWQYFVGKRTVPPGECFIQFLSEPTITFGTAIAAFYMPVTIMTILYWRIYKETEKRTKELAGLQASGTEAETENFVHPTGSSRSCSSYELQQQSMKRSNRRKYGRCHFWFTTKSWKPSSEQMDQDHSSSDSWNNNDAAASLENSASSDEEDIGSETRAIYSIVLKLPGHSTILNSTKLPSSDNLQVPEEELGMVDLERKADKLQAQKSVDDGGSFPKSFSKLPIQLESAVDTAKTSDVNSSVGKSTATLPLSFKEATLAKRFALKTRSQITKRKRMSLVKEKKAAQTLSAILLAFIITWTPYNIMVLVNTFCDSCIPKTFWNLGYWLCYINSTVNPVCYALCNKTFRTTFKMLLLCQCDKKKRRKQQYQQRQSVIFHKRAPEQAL", "test": "Muscarinic M3 receptor binding (lymphocyte suspension)", "conditions": "lymphocyte suspension and sections", "experimental": "as §1, §2, §3, §4, §5"}},
  "data": [
    {"smiles": "CN(C)CCC(Oc1cccc2c1OCO2)c1ccc(OCCCN2CCCCC2)cc1.O=C(O)C(=O)O", "note": "(stereo not shown) [Compound 11b, 3-(benzo[d][1,3]dioxol-4-yloxy)-N,N-dimethyl-3-(4-(3-(piperidin-1-yl)propoxy)phenyl)propan-1-amine oxalate]", "values": [
      {"measurement": "IC50", "setting": "hERG potassium channel", "result": "1000 ± 112", "unit": "nM"},
      {"measurement": "inhibition at 10 µM", "setting": "recombinant hH3R; 10 μM, n = 3", "result": "> 90", "unit": "%"},
      {"measurement": "IC50", "setting": "recombinant hH3R; antagonist assay, RAMH-induced [35S]GTPγS binding", "result": 0.72, "unit": "nM"},
      {"measurement": "Ki", "setting": "NMDA receptor", "result": "> 1000", "unit": "nM"},
      {"measurement": "Ki", "setting": "Dopamine D2 receptor", "result": "> 1000", "unit": "nM"},
      {"measurement": "Ki", "setting": "[1]", "result": "> 1000", "unit": "nM"},
      {"measurement": "Ki", "setting": "NET", "result": "10.5 ± 1.2", "unit": "nM"},
      {"measurement": "Ki", "setting": "Adrenergic α2 receptor", "result": "> 1000", "unit": "nM"},
      {"measurement": "Ki", "setting": "[2]", "result": "> 1000", "unit": "nM"},
      {"measurement": "Ki", "setting": "σ2 receptor", "result": "> 1000", "unit": "nM"},
      {"measurement": "Ki", "setting": "SERT; rat cerebral cortex, [3H]-paroxetine, means ± SEM of three experiments, read-out: Receptor Affinity Ki ± SEM SERT", "result": "7.8 ± 0.9", "unit": "nM"},
      {"measurement": "potency ratio among SERT, NET, and H3", "setting": "SERT; ratio of binding Ki values for SERT, NET, H3", "result": "< 10", "unit": "fold"},
      {"measurement": "Ki", "setting": "adrenergic α1 receptor", "result": "1170 ± 126", "unit": "nM"},
      {"measurement": "Ki", "setting": "muscarinic M1 receptor", "result": "> 1000", "unit": "nM"},
      {"measurement": "LD50 at 24 h", "setting": "[3]", "result": 512, "unit": "mg/kg"},
      {"measurement": "Ki", "setting": "[4]", "result": "> 1000", "unit": "nM"}
    ]}
  ]
}
